Where two headings read alike, the source gives them in different places.
How the values were obtained:
cholesterol in the blood = settings: known from the literature (Herrera-Arellano 2004; Kim 2003); cited from earlier work
[1] = Inhibition of ovalbumin (Ova) oxidative degradation by ClO radical; settings: for ClO radical inhibitory concentration: concentration that completely inhibits oxidative degradation of protein by 10 mM ClO•; for Inhibition effect on degradation of protein due to ClO radical: 30 min, pH 7.2; for Rank of ClO•-scavenging strength (in words): complete inhibition of protein degradation by 10 mM ClO•, comparison of Table 3; for Inhibitory action toward proteolysis by ClO radical: Ova
Procedure: (§1) ClO•, OH•, and NO3• were prepared as three typical active oxygen species produced in the body. Clo• was prepared using a method wherein sodium hypochlorite was diluted to a pH 6.5 with distilled water, OH• by a partially modified Fenton method (B. Halliwell, et al., Analytical Biochmistry, No. 165, p. 215-219, 1987), and NO3• by a modified quenching flow reactor method (R. Radi, et al., Journal of Biological Chemistry, Vol. 266, p. 4244-4250, 1991). Next, Ova was dissolved in pH 7.2 buffered physiological saline to a concentration of 2.5 mg/mL, each concentration of antioxidant was added at a volume ratio of 10:1 with respect to the protein solution, the solution was let stand for 30 min at room temperature, each concentration of active oxygen was added in the same manner at a volume ratio of 10:1 with respect to protein solution, and ClO• oxidation was performed for 30 min at 37° C., OH• oxidation for 60 min at 37° C., and NO3 oxidation for 120 min at 37° C. After the reaction, sodium dodecylsulfate-polyacrylamide gel electrophoresis (SDS-PAGE) was performed on each sample, the gel was stained with Coomassie blue R250, and the Ova degradation inhibition rate was calculated from the densitometer reading. An accurate degradation inhibition rate was calculated using the following formula from the proteolytic inhibition activity obtained by performing GPC-HPLC using a TSKG-3,000SW column directly on the reacted samples.
(§2) Using the same test methods as described in (1) above, a comparison of inhibitory activity by various natural extracts on the Ova degradation by active oxygen was performed. The concentrations of the natural extracts tested were 5 mg/mL as solids.
The strength of antioxidant activity between peptides with antioxidant activity and sulfur-containing amino acids was compared with respect to ClO•, and between various antioxidants with antioxidant activity with respect to OH•.

[2] = Inhibition of ovalbumin (Ova) oxidative degradation by OH radical; settings: for Inhibition effect on degradation of protein due to OH radical: 60 min, pH 7.2; for Inhibitory action toward proteolysis by OH radical: Ova; for OH radical inhibitory concentration: concentration that completely inhibits the proteolytic action of 10 mM OH•
Procedure: as §1, §2

[3] = Inhibition of ovalbumin (Ova) oxidative degradation by ONOO radical; settings: for Inhibition effect on degradation of protein due to ONOO radical: 120 min, pH 7.2; for Inhibitory action toward proteolysis by ONOO radical: Ova; for Concentration that completely inhibited the oxidative effect of ONOO•: 5 mM ONOO•
Procedure: as §1, §2

human red blood cells = assay: Microchannel (MC) transit capability of human red blood cells damaged by active oxygen; type: cell-based
Procedure: A microchannel (hereinafter, MC), which is a capillary model, is a device that measures hemorheology, i.e., the capability of blood to circulate through capillaries. Factors affecting hemorheology include meals, oxidative stress, etc. In the present invention the effects of the three active oxygen species produced in the body on the MC transit capability of human red blood cells were tested, and the effectiveness of various antioxidants in preventing the harmful effects of active oxygen were compared.
Next, the effectiveness of various antioxidants in preventing the MC transit damage due to various active oxygen species was measured using red blood cells. […] (2.5 mM) as the ONOO•-scavenger were used. These three types were mixed together and used as the antioxidant mixture.
A microchannel (MC), which is a capillary model, is a device that measures hemorheology, i.e., the capability of blood to circulate through capillaries. Factors effecting hemorheology include meals, oxidative stress, etc. In the present Example, the effects of the three active oxygen species produced in the body on the MC transit capability of human red blood cells were tested.
For the test method, blood from healthy human volunteers was subjected a Ficoll-Pague centrifuge (made by Amersham-Pharmacia Biotech) to separate a red blood cell fraction, and the MC transit time of the red blood (final concentration of hematocrit is 10%) treated by various active oxygen species was measured by an MC FAN KH-3A (channel width 7 μm, MC Laboratory, Inc.).

[4] = test system: glycated hemoglobin (HbAlc) in the blood; assay: Lowering of glycated hemoglobin in the blood of diabetic model GK rats; type: in vivo; settings: 100 mg/kg orally for 28 days, FIG. 5
Procedure: Using the diabetes model animal GK rats (Y. Ihara, et al. FEBS Letters, Vol. 473, p. 24-26, 2000), the effectiveness of single doses of various antioxidants and combined doses of antioxidants in lowering the level of glycated hemoglobin (HbAlc) in the blood was compared.
As the ClO•-scavenger 200 mg/kg of anserine-carnosine mixture derived from chicken extract, as the OH•-scavenger wheat grass extract (total content of caffeic acid analogues 10 mg/kg), as the ONOO•-scavenger 100 mg/kg of V.C., and a composition containing all three antioxidants were administered orally to the GK rats for 28 days, and the blood HbAlc levels were measured at the end of dosing.

[5] = antioxidant 50 μM, 10 mM ClO radical
[6] = antioxidant 50 μM, 10 mM OH radical
[7] = antioxidant 20 μM, 10 mM ClO radical
[8] = antioxidant 20 μM, 10 mM OH radical
[9] = antioxidant 5 mM, 10 mM ClO radical
[10] = antioxidant 5 mM, 10 mM OH radical

## O=C(/C=C/c1ccc(O)c(O)c1)O[C@@H]1C[C@](O)(C(=O)O)C[C@@H](O)[C@H]1O [Chlorogenic acid, chlorogenic acid]
Cholesterol in the blood
  Effect of lowering the level of cholesterol in the blood (in words): have an effect of lowering the level of cholesterol in the blood

## N[C@@H](CS(=O)(=O)O)C(=O)O [Cysteic acid, cysteic acid]
[1]
  ClO radical inhibitory concentration: 7.5 mM

## CC(=O)N[C@@H](CS)C(=O)O [N-acetyl-L-cysteine]
[1]; 5 mM
  Inhibition effect on degradation of protein due to ClO radical: 100
[1]
  Rank of ClO•-scavenging strength (in words): most potent
  ClO radical inhibitory concentration: 2.5 mM
[2]; 5 mM
  Inhibition effect on degradation of protein due to OH radical: 20
[3]; 5 mM
  Inhibition effect on degradation of protein due to ONOO radical: 20

## Oc1cc(O)c2c(c1)OC(c1ccc(O)c(O)c1)C(O)C2 (centres unmarked) [Catechins, catechins]
[1]; [5]
  Inhibitory action toward proteolysis by ClO radical: 0%
[2]; [6]
  Inhibitory action toward proteolysis by OH radical: 100%
[2]
  OH radical inhibitory concentration: 2.5 µM
[3]
  Concentration showing degradation inhibitory activity against ONOO•: 500 µM
[3]; antioxidant 50 μM
  Inhibitory action toward proteolysis by ONOO radical: 58%

## Cn1cncc1C[C@H](NC(=O)CCN)C(=O)O [Anserine, anserine]
[1]
  ClO radical inhibitory concentration: 5.0 mM

## O=C(O[C@@H]1Cc2c(O)cc(O)cc2O[C@@H]1c1cc(O)c(O)c(O)c1)c1cc(O)c(O)c(O)c1 [Epigallocatechin gallate, epigallocatechin gallate]
Human red blood cells; antioxidant 50 μM, FIG. 4
  Inhibition of red blood cell MC transit damage due to OH•: completely inhibited
[1]; FIG. 1, 10 mM ClO radical, β-carotene 20 μM, EGCG 500 μM
  Inhibition of Ova oxidative degradation by ClO• (in words): faint inhibitory activity
[2]; FIG. 1, 10 mM OH radical, tested concentration
  Concentration at which oxidative degradation of Ova by OH• was completely inhibited: 5 µM
[2]
  OH radical inhibitory concentration: 2.5 µM
[3]; FIG. 1, said to exceed physiologically relevant concentrations
  Concentration showing degradation inhibitory activity against ONOO•: 500 µM

## CSCC[C@H](N)C(=O)O [Methionine, methionine]
[1]; 5 mM
  Inhibition effect on degradation of protein due to ClO radical: 100
[1]
  ClO radical inhibitory concentration: 5.0 mM
[2]; 5 mM
  Inhibition effect on degradation of protein due to OH radical: 62
[3]; 5 mM
  Inhibition effect on degradation of protein due to ONOO radical: 45

## COC1=C(OC)C(=O)C(C/C=C(\C)CC/C=C(\C)CC/C=C(\C)CC/C=C(\C)CC/C=C(\C)CC/C=C(\C)CC/C=C(\C)CC/C=C(\C)CC/C=C(\C)CCC=C(C)C)=C(C)C1=O [CoQ10]
Human red blood cells; hematocrit 10%, 10 mM OH radical, FIG. 10
  Inhibition of red blood cell MC transit damage due to OH•: inhibited the damage
[1]; 50 μM
  Inhibition effect on degradation of protein due to ClO radical: 0
[2]; 50 μM
  Inhibition effect on degradation of protein due to OH radical: 100
[3]; 50 μM
  Inhibition effect on degradation of protein due to ONOO radical: 0

## N[C@@H](CS)C(=O)O [Cysteine, L-cysteine]
[1]; 5 mM
  Inhibition effect on degradation of protein due to ClO radical: 100
[1]
  Rank of ClO•-scavenging strength (in words): most potent
  ClO radical inhibitory concentration: 2.5 mM
[2]; 5 mM
  Inhibition effect on degradation of protein due to OH radical: 15
[3]; 5 mM
  Inhibition effect on degradation of protein due to ONOO radical: 22

## alliin
[1]
  ClO radical inhibitory concentration: 7.5 mM

## N[C@@H](CCC(=O)N[C@@H](CS)C(=O)NCC(=O)O)C(=O)O [Reduced glutathione, reduced glutathione]
[1]
  Rank of ClO•-scavenging strength (in words): most potent
  ClO radical inhibitory concentration: 2.5 mM

## CC1=C(/C=C/C(C)=C/C=C/C(C)=C/C=C/C=C(C)/C=C/C=C(C)/C=C/C2=C(C)C(=O)[C@@H](O)CC2(C)C)C(C)(C)C[C@H](O)C1=O [Astaxanthin, astaxanthin]
[1]; [7]
  Inhibitory action toward proteolysis by ClO radical: 24%
[2]; [8]
  Inhibitory action toward proteolysis by OH radical: 100%
[2]
  OH radical inhibitory concentration: 0.5 µM
[3]; antioxidant 20 μM
  Inhibitory action toward proteolysis by ONOO radical: 28%

## COc1cc(/C=C/C(=O)O)ccc1O [Ferulic acid, ferulic acid]
Cholesterol in the blood
  Effect of lowering the level of cholesterol in the blood (in words): have an effect of lowering the level of cholesterol in the blood
[1]; [5]
  Inhibitory action toward proteolysis by ClO radical: 7%
[2]; [6]
  Inhibitory action toward proteolysis by OH radical: 100%
[2]
  OH radical inhibitory concentration: 2.5 µM
[3]; antioxidant 50 μM
  Inhibitory action toward proteolysis by ONOO radical: 34%

## O=C1O[C@H]([C@@H](O)CO)C([O-])=C1O.[Na+] [sodium V.C.]
[3]
  Concentration that completely inhibited the oxidative effect of ONOO•: 1 mM

## O=C(O)/C=C/c1ccc(O)c(O)c1 [Caffeic acid, caffeic acid]
[2]
  OH radical inhibitory concentration: 4.0 µM
[2]; listed as caffeic acid
  OH radical inhibitory concentration: 2.5 µM

## CC1=C(/C=C/C(C)=C/C=C/C(C)=C/C=C/C=C(C)/C=C/C=C(C)/C=C/C2=C(C)CCCC2(C)C)C(C)(C)CCC1 [B-carotene, β-carotene]
[1]; [7]
  Inhibitory action toward proteolysis by ClO radical: 38%
[2]; [8]
  Inhibitory action toward proteolysis by OH radical: 100%
[2]
  OH radical inhibitory concentration: 0.5 µM
[3]
  Concentration showing degradation inhibitory activity against ONOO•: 10 µM
[3]; antioxidant 20 μM
  Inhibitory action toward proteolysis by ONOO radical: 74%

## Cc1c(C)c2c(c(C)c1O)CC[C@@](C)(CCC[C@H](C)CCC[C@H](C)CCCC(C)C)O2 [Vitamin E, α-tocopherol]
[1]; [9]
  Inhibitory action toward proteolysis by ClO radical: 0%
[2]; [10]
  Inhibitory action toward proteolysis by OH radical: 98%
[2]; complete inhibition of proteolysis by 10 mM OH•, comparison of Table 4
  Rank of OH•-scavenging strength (in words): weakest antioxidant activity
[2]
  OH radical inhibitory concentration: 2500 µM
[2]; fraction of the activity of the carotenoid astaxanthin
  Antioxidant activity against OH• (inhibition of proteolysis) relative to astaxanthin: approximately 1/5000
[3]; antioxidant 5 mM
  Inhibitory action toward proteolysis by ONOO radical: 22%

## O=C1O[C@H]([C@@H](O)CO)C(O)=C1O [Vitamin C, L-ascorbic acid]
Human red blood cells; hematocrit 10%, 5 mM ONOO radical, FIG. 10
  Inhibition of red blood cell MC transit damage due to ONOO•: inhibited the damage
[4]
  Decrease of blood HbAlc level: 0.3%
[1]; [9]
  Inhibitory action toward proteolysis by ClO radical: 67%
[2]; [10]
  Inhibitory action toward proteolysis by OH radical: 0%
[3]
  Concentration that completely inhibited the oxidative effect of ONOO•: 1 mM
[3]; antioxidant 5 mM
  Inhibitory action toward proteolysis by ONOO radical: 100%

## NCCC(=O)N[C@@H](Cc1cnc[nH]1)C(=O)O [Carnosine, carnosine]
[1]
  ClO radical inhibitory concentration: 5.0 mM

## O=c1c(O)c(-c2ccc(O)c(O)c2)oc2cc(O)cc(O)c12 [Quercetin, quercetin]
[1]; [5]
  Inhibitory action toward proteolysis by ClO radical: 5%
[2]; [6]
  Inhibitory action toward proteolysis by OH radical: 100%
[2]
  OH radical inhibitory concentration: 2.5 µM
[3]; antioxidant 50 μM
  Inhibitory action toward proteolysis by ONOO radical: 16%

— patent US7727961B2, “Antioxidant constituents” (Tokai Bussan Co., Ltd., priority 2004, dated 2010)
